# Reference: patent US20070287674A1, “New treatment of diabetes mellitus” (HEJ RESEARCH INSTITUTE OF CHEMISTRY, priority 2006, published 2007)
# Read-outs that look alike come from different tables or passages of the source.
# Molecular target: α-glucosidase (E.C.3.2.1.20)
# Test: α-Glucosidase enzyme inhibition assay (PNP-G substrate, spectrophotometric)
# Format: biochemical
# Protocol: α-Glucosidase (E.C.3.2.1.20) enzyme inhibition assay was performed according to the slightly modified method of Matsui et al. α-glucosidase (E.C.3.2.1.20) from Saccharomyces species, purchased from Wako Pure Chemical Industries Ltd. (Wako 076-02841). The enzyme inhibition was measured spectrophotometrically at pH 6.9 and at 37° C. using 0.7 mM p-nitrophenyl-α-D-glucopyranoside (PNP-G) as a substrate and 500 m units/mL enzyme, in 50 mM sodium phosphate buffer containing 100 mM NaCl. […] The increment in absorption at 400 nm, due to the hydrolysis of PNP-G by α-glucosidase, was monitored continuously on microplate spectrophotometer (Spectra Max Molecular Devices, USA).) [T. Matsui, C. Yoshimoto, K. Osajima, T. Oki, and Y. Osajima. Biosci. Biotech. Biochem., 1996, 60, 2019].
# [1] = in vitro, pH 6.9, 37° C., 0.7 mM PNP-G substrate, 500 m units/mL enzyme, read-out: IC50 ± SEM
# [2] = running text b24, unit inferred, read-out: IC50 (inhibitory effect on the enzyme)
IC50 [1] [µM],IC50 [2] [µM],Structure (SMILES)
407 ± 20,407 ± 20,"C[C@@]12CCC[C@@](C)(C(=O)O[C@@H]3O[C@H](CO)[C@@H](O)[C@H](O)[C@H]3O)[C@H]1CC[C@@]13C[C@@H](CC[C@H]12)[C@@](O)(CO)C3 (single isomer, unassigned; ent-1) [Compound 1, 16, β-17-hydroxy-ent-1-α-auzan 19-O-D-glucopyranosyl ester]"
62.2,62.2 ± 0.008,"C[C@@]12CCC[C@@](C)(C(=O)O)[C@H]1CC[C@@]13C[C@@H](CC[C@H]12)[C@@](O)(CO)C3 (single isomer, unassigned; ent-16) [Compound 2, ent-16,17-dihydroxy-(−)-kauran-19-oic acid]"
